Measured values: publication PMC10035389, “Safety, Tolerability, and Pharmacokinetics of TAK-931, a Cell Division Cycle 7 Inhibitor, in Patients with Advanced Solid Tumors: A Phase I First-in-Human Study” (Cancer Research Communications, 2022)

System: patients with advanced solid tumors
Assay: Safety and tolerability (adverse events, NCI CTCAE v4.03), phase I dose-escalation study
Type: in vivo, human
From the text: This was a phase I, open-label, dose-escalation study of single-agent TAK-931. Dose escalation of TAK-931 was cohort based with an adaptive design using Bayesian logistic regression modeling (BLRM) with pharmacokinetic guidance. BLRM also guided MTD estimation from the second dose. Patients were enrolled in one of four dosing schedules (A, B, D, or E; Supplementary Fig. S1) to receive TAK-931. Two additional schedules were planned (C and F) but no patients were enrolled. Schedule A included an initial accelerated escalation phase. TAK-931 was administered once daily for 14 days in 21-day cycles starting at 30 mg, which doubled until a cycle 1 dose-limiting toxicity (DLT) was observed, when 2 patients experienced grade ≥2 treatment-related toxicity, or when maximum geometric mean plasma concentration (Cmax) for the cohort reached or exceeded 800 ng/mL [threshold for off-target adverse effects (hypotension) in animal toxicology studies]; then dose escalation transitioned to modified Fibonacci escalation steps. In schedule B (based on experience with schedule A), patients received TAK-931 once daily or twice daily for 7 days on, 7 days off in a 28-day cycle starting at 60 mg. In schedule D, patients received TAK-931 once daily starting at 20 mg in 21-day cycles; BLRM was not applied but further adjustments were dependent on observed safety, pharmacokinetics, and pharmacodynamics. In schedule E, patients received TAK-931 once daily for 2 days on, 5 days off starting at 100 mg in 21-day cycles. A safety expansion was permitted once MTD had been determined. Prophylactic growth factors were permitted in all schedules to manage severe and/or febrile neutropenia. TAK-931 treatment continued until unacceptable toxicity, disease progression, or patient withdrawal.
DLTs included: cycle 1 grade ≥3 hematologic and non-hematologic events or grade 2 non-hematologic events considered by the investigator to be TAK-931-related, grade 2 ejection fraction decrease, >2 weeks delay in initiating cycle 2 (1 week for schedules D and E), and >50% TAK-931 dose reduction in cycle 1 due to treatment-related adverse events (AEs; see Supplementary Materials and Methods for full DLT criteria). Toxicity was evaluated by NCI Common Terminology Criteria for Adverse Events (version 4.03). Tumor response was measured using the RECIST (version 1.1) ([16]). Serial blood samples for pharmacokinetic analysis were collected during cycle 1 on days 1 and 7 (schedule B), 1 and 8 (schedules A and D), or 1 and 9 (schedule E). Pharmacokinetic parameters were estimated from concentration–time profiles using noncompartmental methods with WinNonlin® Phoenix™ version 8.1 (Certara, Princeton, NJ). pMCM2 was detected semiquantitatively by IHC of histologic sections of formalin-fixed, paraffin-embedded skin and tumor biopsies using anti-pMCM2 (3378-1, Epitomics Inc.; ref. [15]). Quantitative image analysis determined pMCM2 levels as “histologic score nuclei (H-score).” Skin punch biopsies (2–4 mm) were obtained during screening or predose on cycle 1, day 1 and for patients in schedules A, B, and D, postdose on any drug dosing day after 3 consecutive dosing days in cycle 1. A postdose skin biopsy was obtained on day 9 in schedule E. Fresh tumor biopsy pairs were collected predose and postdose on any dosing day after the completion of 3 consecutive dosing days in cycle 1 from patients who received doses considered to have biological effect.
The safety population included patients who received ≥1 dose of TAK-931. The pharmacodynamic-evaluable population comprised patients from the safety population with a baseline and ≥1 additional postbaseline biopsy sample that was suitable for pMCM2 analysis. The pharmacokinetic-evaluable population included patients with sufficient dosing and TAK-931 concentration–time data to estimate pharmacokinetic parameters. […]

[1] = Schedule D (continuous once daily) n = 18
[2] = Schedule E (2 days on, 5 days off) n = 13
[3] = all schedules, N = 80, all grade 1/2

Cc1[nH]ncc1-c1cc2nc([C@@H]3CC4CCN3CC4)[nH]c(=O)c2s1 [TAK-931, simurosertib]
Rash popular, AE any grade [1]: 2 (11) n (%) | Stomatitis, AE any grade [1]: 0 (0) n (%) | Thrombocytopenia, AE any grade [1]: 0 (0) n (%) | Tumor pain, AE any grade [1]: 1 (6) n (%) | Vomiting, AE any grade [1]: 2 (11) n (%) | White blood cell count decreased, AE any grade [1]: 7 (39) n (%) | White blood cell count decreased, grade ≥3 AE [1]: 2 (11) n % | Abdominal pain, AE any grade [2]: 0 (0) n (%) | Alopecia, AE any grade [2]: 4 (31) n (%) | Anemia, AE any grade [2]: 6 (46) n (%) | Anemia, grade ≥3 AE [2]: 5 (38) n % | Arthralgia, AE any grade [2]: 1 (8) n (%) | Blood creatinine increased, AE any grade [2]: 0 (0) n (%) | Constipation, AE any grade [2]: 1 (8) n (%) | Cough, AE any grade [2]: 0 (0) n (%) | Decreased appetite, AE any grade [2]: 5 (38) n (%) | Decreased appetite, grade ≥3 AE [2]: 0 (0) n % | Diarrhea, AE any grade [2]: 3 (23) n (%) | Dry skin, AE any grade [2]: 3 (23) n (%) | Edema peripheral, AE any grade [2]: 3 (23) n (%) | Electrocardiogram QT prolonged, AE any grade [2]: 1 (8) n (%) | Fall, AE any grade [2]: 2 (15) n (%) | Fatigue, AE any grade [2]: 2 (15) n (%) | Febrile neutropenia, AE any grade [2]: 1 (8) n (%) | Febrile neutropenia, grade ≥3 AE [2]: 1 (8) n % | Gamma-glutamyltransferase increased, AE any grade [2]: 2 (15) n (%) | Gamma-glutamyltransferase increased, grade ≥3 AE [2]: 0 (0) n % | Hypoalbuminemia, AE any grade [2]: 0 (0) n (%) | Hypoalbuminemia, grade ≥3 AE [2]: 0 (0) n % | Hypophosphatemia, grade ≥3 AE [2]: 0 (0) n % | Hypotension, AE any grade [2]: 5 (38) n (%) | Leukopenia, AE any grade [2]: 1 (8) n (%) | Leukopenia, grade ≥3 AE [2]: 0 (0) n % | Lymphocyte count decreased, AE any grade [2]: 1 (8) n (%) | Lymphocyte count decreased, grade ≥3 AE [2]: 1 (8) n % | Lymphopenia, AE any grade [2]: 0 (0) n (%) | Malaise, AE any grade [2]: 2 (15) n (%) | Nasopharyngitis, AE any grade [2]: 0 (0) n (%) | Nausea, AE any grade [2]: 7 (54) n (%) | Neutropenia, AE any grade [2]: 8 (62) n (%) | Neutropenia, grade ≥3 AE [2]: 8 (62) n % | Orthostatic hypotension, AE any grade [2]: 3 (23) n (%) | Platelet count decreased, AE any grade [2]: 1 (8) n (%) | Pruritus, AE any grade [2]: 0 (0) n (%) | Pyrexia, AE any grade [2]: 2 (15) n (%) | Rash popular, AE any grade [2]: 0 (0) n (%) | Stomatitis, AE any grade [2]: 1 (8) n (%) | Thrombocytopenia, AE any grade [2]: 0 (0) n (%) | Tumor pain, AE any grade [2]: 3 (23) n (%) | Vomiting, AE any grade [2]: 7 (54) n (%) | White blood cell count decreased, AE any grade [2]: 7 (54) n (%) | White blood cell count decreased, grade ≥3 AE [2]: 4 (31) n % | Abdominal pain, AE any grade (Total, all schedules N = 80): 5 (6) n (%) | Alopecia, AE any grade (Total, all schedules N = 80): 26 (33) n (%) | Anemia, AE any grade (Total, all schedules N = 80): 19 (24) n (%) | Anemia, grade ≥3 AE (Total, all schedules N = 80): 10 (13) n % | Arthralgia, AE any grade (Total, all schedules N = 80): 6 (8) n (%) | Blood creatinine increased, AE any grade (Total, all schedules N = 80): 7 (9) n (%) | Constipation, AE any grade (Total, all schedules N = 80): 10 (13) n (%) | Cough, AE any grade (Total, all schedules N = 80): 3 (4) n (%) | Decreased appetite, AE any grade (Total, all schedules N = 80): 23 (29) n (%) | Decreased appetite, grade ≥3 AE (Total, all schedules N = 80): 3 (4) n % | Diarrhea, AE any grade (Total, all schedules N = 80): 15 (19) n (%) | Dry skin, AE any grade (Total, all schedules N = 80): 6 (8) n (%) | Edema peripheral, AE any grade (Total, all schedules N = 80): 10 (13) n (%) | Electrocardiogram QT prolonged, AE any grade (Total, all schedules N = 80): 4 (5) n (%) | Fall, AE any grade (Total, all schedules N = 80): 4 (5) n (%) | Fatigue, AE any grade (Total, all schedules N = 80): 12 (15) n (%) | Febrile neutropenia, AE any grade (Total, all schedules N = 80): 5 (6) n (%) | Febrile neutropenia, grade ≥3 AE (Total, all schedules N = 80): 5 (6) n % | Gamma-glutamyltransferase increased, AE any grade (Total, all schedules N = 80): 5 (6) n (%) | Gamma-glutamyltransferase increased, grade ≥3 AE (Total, all schedules N = 80): 2 (3) n % | Hypoalbuminemia, AE any grade (Total, all schedules N = 80): 6 (8) n (%) | Hypoalbuminemia, grade ≥3 AE (Total, all schedules N = 80): 2 (3) n % | Hypophosphatemia, grade ≥3 AE (Total, all schedules N = 80): 2 (3) n % | Hypotension, AE any grade (Total, all schedules N = 80): 11 (14) n (%) | Leukopenia, AE any grade (Total, all schedules N = 80): 19 (24) n (%) | Leukopenia, grade ≥3 AE (Total, all schedules N = 80): 11 (14) n % | Lymphocyte count decreased, AE any grade (Total, all schedules N = 80): 4 (5) n (%) | Lymphocyte count decreased, grade ≥3 AE (Total, all schedules N = 80): 2 (3) n % | Lymphopenia, AE any grade (Total, all schedules N = 80): 5 (6) n (%) | Malaise, AE any grade (Total, all schedules N = 80): 11 (14) n (%) | Nasopharyngitis, AE any grade (Total, all schedules N = 80): 6 (8) n (%) | Nausea, AE any grade (Total, all schedules N = 80): 48 (60) n (%) | Neutropenia, AE any grade (Total, all schedules N = 80): 45 (56) n (%) | Neutropenia, grade ≥3 AE (Total, all schedules N = 80): 37 (46) n % | Orthostatic hypotension, AE any grade (Total, all schedules N = 80): 4 (5) n (%) | Platelet count decreased, AE any grade (Total, all schedules N = 80): 6 (8) n (%) | Pruritus, AE any grade (Total, all schedules N = 80): 4 (5) n (%) | Pyrexia, AE any grade (Total, all schedules N = 80): 10 (13) n (%) | Rash popular, AE any grade (Total, all schedules N = 80): 5 (6) n (%) | Stomatitis, AE any grade (Total, all schedules N = 80): 7 (9) n (%) | Thrombocytopenia, AE any grade (Total, all schedules N = 80): 5 (6) n (%) | Tumor pain, AE any grade (Total, all schedules N = 80): 8 (10) n (%) | Vomiting, AE any grade (Total, all schedules N = 80): 29 (36) n (%) | White blood cell count decreased, AE any grade (Total, all schedules N = 80): 27 (34) n (%) | White blood cell count decreased, grade ≥3 AE (Total, all schedules N = 80): 12 (15) n % | Decrease in CLr (renal effects monitoring) (all schedules): no clinically relevant decrease | Severity of cardiovascular events (all schedules): grade 1/2 | Alopecia, AE (all schedules, N = 80): 33% | Anemia, AE (all schedules, N = 80): 24% | Anemia, grade ≥3 AE (all schedules, N = 80): 13% | Decreased appetite, AE (all schedules, N = 80): 29% | Febrile neutropenia, grade ≥3 AE (all schedules, N = 80): 6% | Leukopenia, AE (all schedules, N = 80): 24% | Leukopenia, grade ≥3 AE (all schedules, N = 80): 14% | Nausea, AE (all schedules, N = 80): 60% | Neutropenia, AE (all schedules, N = 80): 56% | Neutropenia, grade ≥3 AE (all schedules, N = 80): 46% | Patients who discontinued treatment (AEs) (all schedules, N = 80): 4 patients | Patients with AEs resulting in dose delays (all schedules, N = 80): 40% | Patients with AEs resulting in dose holds (all schedules, N = 80): 45% | Patients with AEs resulting in dose reductions (all schedules, N = 80): 31% | Vomiting, AE (all schedules, N = 80): 36% | White blood cell count decreased, AE (all schedules, N = 80): 34% | White blood cell count decreased, grade ≥3 AE (all schedules, N = 80): 15% | Patients reporting grade ≥3 AEs (all schedules, N = 80, 50 patients): 63% | Patients experiencing AEs (all schedules, N = 80, 79 patients): 99% | Patients with AEs resulting in TAK-931 dose modification (all schedules, N = 80, Forty-nine patients): 61% | Patients who discontinued treatment (AEs) (all schedules, N = 80, Four patients): 5% | Patients with ≥1 serious AE (all schedules, N = 80, Twenty-three patients): 29% | Electrocardiogram QT prolonged, cardiovascular event [3]: 5% | Hypotension, cardiovascular event [3]: 14% | Orthostatic hypotension, cardiovascular event [3]: 5% | Decreased appetite, serious AE (all schedules, N = 80, n = 3): 4% | Malignant ascites, serious AE (all schedules, N = 80, n = 3): 4% | Febrile neutropenia, serious AE (all schedules, N = 80, n = 4): 5% | Patients who died during the study (all schedules, Two patients, due to disease progression, neither related to TAK-931): 3%
